# Results taken from patent publication US8178690B2, “Compounds and methods for inhibiting the interaction of BCL proteins with binding partners” (Infinity Pharmaceuticals, Inc., priority 2006, dated 2012).
# Key:
# Bcl-xL = Bcl-xL (Homo sapiens, UniProt Q07817); assay: Bcl-xL binding affinity analysis (fluorescence polarization binding assay); details: read-out: BcI-XI (Ki, Bcl-xL binding affinity)
# Text: (§1) Bcl-2 and Bcl-xL binding may be determined using a variety of known methods. One such assay is a sensitive and quantitative in vitro binding assay using fluorescence polarization (FP) described by Wang, J.-L.; Zhang, Z-J.; Choksi, S.; Sjam. S.; Lu, Z.; Croce, C. M.; Alnemri, E. S.; Komgold, R.; Huang, Z. Cell permeable Bcl-2 binding peptides: a chemical approach to apoptosis induction in tumor cells. Cancer Res. 2000, 60, 1498-1502).
# (§2) Bcl-2 and Bcl-xL binding affinity analysis data is presented below for various compounds of the invention.
# Bcl-2 = Bcl-2 (Homo sapiens, UniProt P10415); assay: Bcl-2 binding affinity analysis (fluorescence polarization binding assay); details: read-out: BcI2 (Ki, Bcl-2 binding affinity)
# Sequence of Bcl-2 (P10415 whole entry): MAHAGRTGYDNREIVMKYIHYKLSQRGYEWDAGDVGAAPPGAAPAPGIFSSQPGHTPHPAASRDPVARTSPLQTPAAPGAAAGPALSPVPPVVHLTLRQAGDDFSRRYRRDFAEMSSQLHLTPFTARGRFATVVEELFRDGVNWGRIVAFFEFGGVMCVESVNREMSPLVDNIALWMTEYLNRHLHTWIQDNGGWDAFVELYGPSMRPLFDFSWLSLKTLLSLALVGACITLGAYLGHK
# Text: as §1, §2
# Sequence of Bcl-xL (Q07817 whole entry): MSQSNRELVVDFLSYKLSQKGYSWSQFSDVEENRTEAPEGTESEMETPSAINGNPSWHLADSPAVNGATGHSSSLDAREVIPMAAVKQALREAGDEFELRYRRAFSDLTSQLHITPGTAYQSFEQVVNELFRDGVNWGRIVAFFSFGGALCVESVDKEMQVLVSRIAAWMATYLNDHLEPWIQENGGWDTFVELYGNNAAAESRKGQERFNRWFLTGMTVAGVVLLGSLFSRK
Compound,Ki (Bcl-xL) [nM],Ki (Bcl-2) [nM]
COc1c(CN2O[C@@H](CO)[C@@H]([C@H](C)O)[C@H]2C(=O)N[C@H]2C[C@H]3C[C@@H]([C@@H]2C)C3(C)C)cccc1-c1cc(C(=O)N[C@@H](Cc2ccccc2)CN(C)C)cc([N+](=O)[O-])c1 [Compound 264],< 1000,< 1
COc1c(CN2O[C@@H](CO)[C@@H]([C@H](C)O)[C@H]2C(=O)N[C@H]2C[C@H]3C[C@@H]([C@@H]2C)C3(C)C)cccc1-c1cc(C(=O)NCCc2ccccc2)cc(N(C)C)c1 [Compound 126],< 1000,< 1
COc1c(CN2O[C@@H](CO)[C@@H]([C@H](C)O)[C@H]2C(=O)N[C@H]2C[C@H]3C[C@@H]([C@@H]2C)C3(C)C)cccc1-c1cc(C(=O)N[C@@H](CC(C)C)C(N)=O)cc(N(C)C)c1 [Compound 260],< 1000,1 to 5
CNC(=O)c1cc(-c2cccc(CN3O[C@@H](CNCc4ccccn4)[C@@H]([C@H](C)O)[C@H]3C(=O)N[C@H]3C[C@H]4C[C@@H]([C@@H]3C)C4(C)C)c2OC)cc(N(C)C)c1 [Compound 83],> 10000,> 9
CNC(=O)c1cc(-c2cccc(CN3O[C@@H](CNC(=O)CCC(=O)O)[C@@H]([C@H](C)O)[C@H]3C(=O)N[C@H]3C[C@H]4C[C@@H]([C@@H]3C)C4(C)C)c2OC)cc(N(C)C)c1 [Compound 75],1000 to 5000,5 to 9
COc1c(CN2O[C@@H](CO)[C@@H]([C@H](C)O)[C@H]2C(=O)N[C@H]2C[C@H]3C[C@@H]([C@@H]2C)C3(C)C)cccc1-c1cc(C(=O)N[C@H](CN(C)C)[C@@H](NS(C)(=O)=O)c2ccccc2)cc(N(C)CCO)c1 [Compound 290],< 1000,< 1
COc1c(CN2O[C@@H](CO)[C@@H]([C@H](C)O)[C@H]2C(=O)N[C@H]2C[C@H]3C[C@@H]([C@@H]2C)C3(C)C)cccc1-c1cc(C(=O)N[C@@H](CC(C)C)CN2CCN(C)CC2)cc(N(C)C)c1 [Compound 314],< 1000,< 1
CNC(=O)c1cc(-c2cccc(CN3O[C@@H](CNCc4ccccc4)[C@@H]([C@H](C)O)[C@H]3C(=O)N[C@H]3C[C@H]4C[C@@H]([C@@H]3C)C4(C)C)c2OC)cc(N(C)C)c1 [Compound 85],5000 to 10000,> 9
CCOc1c(CN2O[C@@H](CO)[C@@H]([C@H](C)O)[C@H]2C(=O)N[C@H]2C[C@H]3C[C@@H]([C@@H]2C)C3(C)C)cccc1-c1cc(C(=O)N[C@H](CN(C)C)CS(C)(=O)=O)cc(N(C)C)c1 [Compound 176],1000 to 5000,1 to 5
C[C@@H]1[C@@H](NC(=O)[C@@H]2[C@H]([C@H](C)O)[C@H](CN)ON2Cc2cccc(-c3cc(C(=O)N[C@@H](Cc4ccccc4)CN(C)C)cc(N(C)C)c3)c2F)C[C@H]2C[C@@H]1C2(C)C [Compound 38],> 10000,< 1
CNC(=O)c1cc(-c2cccc(CN3O[C@@H](CNC(=O)CCC(=O)OC)[C@@H]([C@H](C)O)[C@H]3C(=O)N[C@H]3C[C@H]4C[C@@H]([C@@H]3C)C4(C)C)c2OC)cc(N(C)C)c1 [Compound 78],5000 to 10000,> 9
COc1c(CN2O[C@@H](CO)[C@@H]([C@H](C)O)[C@H]2C(=O)N[C@H]2C[C@H]3C[C@@H]([C@@H]2C)C3(C)C)cccc1-c1cc(C(=O)N[C@@H](CC(C)C)CN(C)C)cc(N(C)CC(C)C)c1 [Compound 271],< 1000,< 1
COc1c(-c2cc(C(=O)N[C@@H](Cc3ccccc3)CN(C)C)cc(N(C)C)c2)ccc(F)c1CN1O[C@@H](CN)[C@@H]([C@H](C)O)[C@H]1C(=O)N[C@H]1C[C@H]2C[C@@H]([C@@H]1C)C2(C)C [Compound 127],< 1000,< 1
COc1c(CN2O[C@@H](CNC(=O)C(F)(F)F)[C@@H]([C@H](C)O)[C@H]2C(=O)N[C@H]2C[C@H]3C[C@@H]([C@@H]2C)C3(C)C)cccc1-c1cc(C(=O)NCCc2ccccc2)cc(N(C)C)c1 [Compound 74],5000 to 10000,> 9
CNC(=O)c1cc(-c2cccc(CN3O[C@@H](CN(C)C)[C@@H]([C@H](C)O)[C@H]3C(=O)N[C@H]3C[C@H]4C[C@@H]([C@@H]3C)C4(C)C)c2OC)cc(N(C)C)c1 [Compound 99],> 10000,> 9
CNC(=O)c1cc(-c2cccc(CN3O[C@@H](CN)[C@@H]([C@H](C)O)[C@H]3C(=O)N[C@H]3C[C@H]4C[C@@H]([C@@H]3C)C4(C)C)c2OC)cc(N(C)C)c1 [Compound 70],> 10000,1 to 5
COc1c(CN2O[C@@H](CO)[C@@H]([C@H](C)O)[C@H]2C(=O)N[C@H]2C[C@H]3C[C@@H]([C@@H]2C)C3(C)C)cccc1-c1cc(C(=O)N2CCN(C)C[C@@H]2Cc2ccccc2)cc(N(C)C)c1 [Compound 193],1000 to 5000,1 to 5
CCOc1c(CN2O[C@@H](CO)[C@@H]([C@H](C)O)[C@H]2C(=O)N[C@H]2C[C@H]3C[C@@H]([C@@H]2C)C3(C)C)cccc1-c1cc(C(=O)N[C@H](CN(C)C)CC(C)(C)C)cc(N(C)C)c1 [Compound 24],< 1000,< 1

Compound,Ki (Bcl-xL) [nM],Ki (Bcl-2) [nM]
COc1c(CN2O[C@@H](CNC(C)=O)[C@@H]([C@H](C)O)[C@H]2C(=O)N[C@H]2C[C@H]3C[C@@H]([C@@H]2C)C3(C)C)cccc1-c1cc(C(=O)NCCc2ccccc2)cc(N(C)C)c1 [Compound 76],> 10000,5 to 9
COc1c(CN2O[C@@H](CN)[C@@H]([C@H](C)O)[C@H]2C(=O)N[C@H]2C[C@H]3C[C@@H]([C@@H]2C)C3(C)C)cccc1-c1cc(C(=O)NCCN(C)C)cc(N(C)C)c1 [Compound 63],5000 to 10000,< 1
COc1c(-c2cc(C(=O)N[C@H](CN(C)C)[C@@H](NS(C)(=O)=O)c3ccccc3)cc(N(C)C)c2)ccc(F)c1CN1O[C@@H](CO)[C@@H]([C@H](C)O)[C@H]1C(=O)N[C@H]1C[C@H]2C[C@@H]([C@@H]1C)C2(C)C [Compound 151],< 1000,< 1
COc1c(CN2O[C@@H](CO)[C@@H]([C@H](C)O)[C@H]2C(=O)N[C@H]2C[C@H]3C[C@@H]([C@@H]2C)C3(C)C)cccc1-c1cc(C(=O)N[C@H](CN(C)C)[C@H](O)c2ccccc2)cc(N(C)C)c1 [Compound 136],< 1000,< 1
COc1c(CN2O[C@@H](CO)[C@@H]([C@H](C)O)[C@H]2C(=O)N[C@H]2C[C@H]3C[C@@H]([C@@H]2C)C3(C)C)cccc1-c1cc(C(=O)N[C@@H](CCc2ccccc2)CN(C)C)cc([N+](=O)[O-])c1 [Compound 265],< 1000,< 1
COc1c(CN2O[C@@H](CN=C(N(C)C)N(C)C)[C@@H]([C@H](C)O)[C@H]2C(=O)N[C@H]2C[C@H]3C[C@@H]([C@@H]2C)C3(C)C)cccc1-c1cc(C(=O)NCCc2ccccc2)cc(N(C)C)c1 [Compound 86],> 10000,> 9
CNC(=O)c1cc(-c2cccc(CN3O[C@@H](CNC(=O)Nc4ccccc4)[C@@H]([C@H](C)O)[C@H]3C(=O)N[C@H]3C[C@H]4C[C@@H]([C@@H]3C)C4(C)C)c2OC)cc(N(C)C)c1 [Compound 79],5000 to 10000,> 9
CNC(=O)c1cc(-c2cccc(CN3O[C@@H](CNCc4ccncc4)[C@@H]([C@H](C)O)[C@H]3C(=O)N[C@H]3C[C@H]4C[C@@H]([C@@H]3C)C4(C)C)c2OC)cc(N(C)C)c1 [Compound 82],> 10000,> 9
COc1c(CN2O[C@@H](CN)[C@@H]([C@H](C)O)[C@H]2C(=O)N[C@H]2C[C@H]3C[C@@H]([C@@H]2C)C3(C)C)cccc1-c1cc(C(=O)N(C)C)cc(N(C)C)c1 [Compound 69],> 10000,5 to 9
COc1c(CN2O[C@@H](CO)[C@@H]([C@H](C)O)[C@H]2C(=O)N[C@H]2C[C@H]3C[C@@H]([C@@H]2C)C3(C)C)cccc1-c1cc(Cl)cc(C(=O)N[C@@H](Cc2ccccc2)CN(C)C)c1 [Compound 255],< 1000,< 1
CNC(=O)c1cc(-c2cccc(CN3O[C@@H](CN)[C@@H]([C@H](C)OC(=O)N(C)C)[C@H]3C(=O)N[C@H]3C[C@H]4C[C@@H]([C@@H]3C)C4(C)C)c2OC)cc(N(C)C)c1 [Compound 87],> 10000,> 9
CNC(=O)c1cc(-c2cccc(CN3O[C@@H](CNC(C)C)[C@@H]([C@H](C)O)[C@H]3C(=O)N[C@H]3C[C@H]4C[C@@H]([C@@H]3C)C4(C)C)c2OC)cc(N(C)C)c1 [Compound 97],> 10000,> 9
COc1c(-c2cc(C(=O)N[C@@H](Cc3ccccc3)CN(C)C)cc(N(C)C)c2)ccc(Cl)c1CN1O[C@@H](CO)[C@@H]([C@H](C)O)[C@H]1C(=O)N[C@H]1C[C@H]2C[C@@H]([C@@H]1C)C2(C)C [Compound 274],1000 to 5000,< 1
COc1c(CN2O[C@@H](CN)[C@@H]([C@H](C)O)[C@H]2C(=O)N[C@H]2C[C@H]3C[C@@H]([C@@H]2C)C3(C)C)cccc1-c1cc(C(=O)N[C@@H](Cc2ccccn2)CN(C)C)cc(N(C)C)c1 [Compound 252],1000 to 5000,< 1
COc1c(CN2O[C@@H](CO)[C@@H]([C@H](C)O)[C@H]2C(=O)N[C@H]2C[C@H]3C[C@@H]([C@@H]2C)C3(C)C)cccc1-c1cc2c(c(C(=O)N[C@H](CN(C)C)CC(C)(C)C)c1)OCC2 [Compound 256],< 1000,< 1
COc1c(CN2O[C@@H](CN)[C@@H]([C@H](C)O)[C@H]2C(=O)N[C@H]2C[C@H]3C[C@@H]([C@@H]2C)C3(C)C)cccc1-c1cc(C(=O)N[C@@H]2CCN(C)C2)cc(N(C)C)c1 [Compound 213],> 10000,< 1
COc1c(CN2O[C@@H](CN(C)C)[C@@H]([C@H](C)O)[C@H]2C(=O)N[C@H]2C[C@H]3C[C@@H]([C@@H]2C)C3(C)C)cccc1-c1cc(C(=O)NCCc2ccccc2)cc(N(C)C)c1 [Compound 80],5000 to 10000,5 to 9
